Data taken from patent US20110313006A1, “PHARMACEUTICAL COMPOSITION OF LEVAMLODIPINE OR PHARMACEUTICALLY ACCEPTABLE SALT THEREOF AND β RECEPTOR BLOCKING AGENT, AND USE THEREOF” (SHIHUIDA PHARMACEUTICALS GROUP (JILIN) LTD, priority 2010, published 2011).

Tested on: SHR rats having spontaneous hypertension
Experiment: Antihypertension test in rat (systolic pressure at the tail artery, tail volume method)
Format: in vivo
Conditions: for Anti-hypertensive effect compared with the model group / Blood pressure (systolic pressure at the tail artery), before administration: intragastric; for Anti-hypertensive effect compared with the model group: versus model group (0.9% saline); for Blood pressure (systolic pressure at the tail artery), 2 weeks after administration: end of week 2; for Blood pressure (systolic pressure at the tail artery), 3 weeks after administration: end of week 3; for Blood pressure (systolic pressure at the tail artery), 4 weeks after administration: end of week 4; for Blood pressure (systolic pressure at the tail artery), before administration: baseline before administration, mean ± spread
Description: Experiment method: 120 SHR rats having spontaneous hypertension (female:male 1:2, weighted 200-240 g) were equally divided into 12 groups according to the level of hypertension (the specific grouping method is as shown in Table 1), and intragastrically administrated with the medicine. For the blood pressure of the rat, the systolic pressure at the tail artery of the rat when being wake and quiet was indirectly measured by an electronic blood pressure meter through tail volume method respectively before administration, and at the end of 1, 2, 3, and 4 weeks after administration.

[1] = SHR rats, intragastric daily, n = 10, end of week 1, dose per group in Table 1
[2] = SHR rats, intragastric daily, n = 10, dose per group in Table 1
[3] = SHR rats, n = 10, dose per group in Table 1

Row | Compound | Anti-hypertensive effect compared with the model group (SHR rats) | Blood pressure (systolic pressure at the tail artery), 1 week after administration [1] [Kpa] | Blood pressure (systolic pressure at the tail artery), 2 weeks after administration [2] [KPa] | Blood pressure (systolic pressure at the tail artery), 3 weeks after administration [2] [KPa] | Blood pressure (systolic pressure at the tail artery), 4 weeks after administration [2] [KPa] | Blood pressure (systolic pressure at the tail artery), before administration [3] [KPa] | Blood pressure (systolic pressure at the tail artery), 1 week after administration (po, 168 h) [Kpa]
1 | Levamlodipine benzenesulfonate [Single medicine group 1] | significant anti-hypertensive effect | – | – | – | – | – | –
2 | OC(CNCC(O)C1CCc2cc(F)ccc2O1)C1CCc2cc(F)ccc2O1 (stereo not shown) [Single medicine group 2, Nebivolol] | significant anti-hypertensive effect | 27.28 ± 1.48 | 25.94 ± 1.68 | 25.57 ± 1.61 | 25.29 ± 1.49 | 27.42 ± 1.50 | –
3 | CC(C)(C)NCC(O)COc1cccc2c1CC(O)C(O)C2 (stereo not shown) [Single medicine group 6, Nadolol] | significant anti-hypertensive effect | 27.30 ± 1.56 | 26.01 ± 1.42 | 25.62 ± 1.47 | – | 27.51 ± 1.53 | –
4 | CCN(CC)C(=O)Nc1ccc(OCC(O)CNC(C)(C)C)c(C(C)=O)c1 (stereo not shown) [Single medicine group 5, Celiprolol] | significant anti-hypertensive effect | 27.41 ± 1.30 | – | 25.83 ± 1.92 | 25.60 ± 2.05 | 27.56 ± 1.23 | –
5 | CC(C)NCC(O)COc1ccc(CCOCC2CC2)cc1 (stereo not shown) [Single medicine group 4, Betaxolol] | significant anti-hypertensive effect | – | 25.99 ± 1.39 | 25.62 ± 1.46 | – | 27.45 ± 1.07 | 27.20 ± 1.10
6 | CC(C)NCC(O)COc1ccc(COCCOC(C)C)cc1 (stereo not shown) [Single medicine group 3, Bisoprolol] | significant anti-hypertensive effect | 27.34 ± 1.41 | 26.14 ± 1.19 | 25.82 ± 1.20 | 25.58 ± 1.24 | 27.52 ± 1.46 | –
